# Patent US6716819B2, “Use of xylitol to reduce ionic strength and activate endogenous antimicrobials for prevention and treatment of infections” (University of Iowa Research Foundation, priority 2000, dated 2004)
# Columns and labels:
# [1] = in chewing gum, lozenges, or syrup; cited from earlier work
# [2] = test system: bacteria from the nasal surface; assay: Growth of normal nasal flora from nasal swabs in M9 media; type: cell-based; conditions: M9 media with 100 mM xylitol, 72 hours at 37° C.
# Method: FIGS. 5(A-G). Effect of xylitol on growth of different airway pathogens. A, B and C. Growth of P. aeruginosa (A), S. aureus, (B), and coagulase-negative Staphylococcus (C) were measured as O. D. M9 media alone is indicated by open triangle. Xylitol (closed circle), or succinate, mannitol, or sucrose (open circles), were added to M9 media at 100 mM as indicated. D. Nasal swabs were collected and cultured for 3 days in Lauria-Bertani media (open circles), in minimal M9 media (open squares), or in M9 media supplemented with 100 mM xylitol (closed circles). E, F and G. P. aeruginosa (E), S. aureus (F), and coagulase-negative Staphylococcus (G) were cultured in Lauria-Bertani media alone (open triangles), Lauria-Bertani media with 100 mM xylitol (closed circles), and Lauria-Bertani media containing tobramycin or levofloxacin (open circles).
# To test the effect of xylitol on growth of normal nasal flora in a carbon-starved media, nasal swabs were obtained from 3 normal volunteers and the swabs were inoculated into M9 media alone, M9 with 100 mM xylitol, or Lauria-Bertani media. The media were incubated at 37° C. for 72 hours and the O.D. were recorded.
# It was tested whether xylitol would support bacterial growth. P. aeruginosa were placed in M9 media, which lacks a carbon source. […] In contrast, there was no growth of P. aeruginosa when M9 media was supplemented with xylitol. […]
# non-CF epithelia = assay: ASL Cl- concentration and volume (isotope method); type: cell-based, human
# Method: (§1) FIGS. 3(A-B). The effect of apical xylitol on non-CF and CF ASL Cl^− concentration and volume. Five μl of isosmotic xylitol or saline solution were applied to the apical surface. Twenty-four hours later, ASL Cl^− concentration (A) and volume (B) were determined. Asterisk indicates a difference between the saline and the xylitol solutions, p<0.05. N=15 to 18 from 3 CF and 3 non-CF specimens.
# (§2) Airway epithelial cells were isolated from tracheal and bronchial tissue. […] All epithelia were evaluated with scanning electron microscopy for the development of a ciliated apical surface.
# (§3) The ASL Cl^− concentration was measured as previously described (Zabner, J., J. J. Smith, P. H. Karp, J. H. Widdicombe, and M. J. Welsh. 1998. Loss of CFTR chloride channels alters salt absorption by cystic fibrosis airway epithelia in vitro. Mol. Cell. 2:397-403). […] The ratio of ^36Cl to ^3H2O was determined by liquid scintillation. […] From these measurements, it was determined the ^3H2O activity per μl of water and the cpm of ^36Cl per mole of Cl^− in the basolateral medium. ASL volume was calculated from the ASL ^3H2O collected divided by the ratio of ^3H2O activity per μl of basolateral medium. Chloride content was calculated from the ASL ^36Cl collected divided by the ratio of ^36Cl per mole of Cl^− in the basolateral medium ASL Cl^− concentration was calculated from the Cl^− content divided by the volume of ASL. […]
# CF epithelia = assay: ASL Cl- concentration and volume (isotope method); type: cell-based, human
# Method: as §1, §2, §3
# [3] = 24 hours after 5 μl isosmotic xylitol solution apical
smiles,measurement,setting,value
OC[C@@H](O)[C@H](O)[C@@H](O)CO [xylitol],decrease in incidence of acute otitis media,[1],20-40%
same,growth of bacteria from nasal swabs,[2],no growth
same,estimated ASL volume,non-CF epithelia; 24 hours after 5 μl apical,increased
same,ASL Cl- concentration,non-CF epithelia; [3],34.2 ± 4.3 mM
same,estimated ASL volume,CF epithelia; 24 hours after 5 μl apical,increased
same,ASL Cl- concentration,CF epithelia; [3],fell to values observed in non-CF epithelia
